Assay results taken from US12472195B2, “Inhalation formulations of antimicrobial compounds” (priority 2020, dated 2025).
Like-named read-outs stand apart in the source and are kept apart here.

Assays:
[1] = test system: human lung epithelial A549 cells
Protocol: Human lung epithelial cells (A549 cells) were obtained from American Type Culture Collection (ATCC® CCL-185™, Manassas, VA, USA), grown and sub-cultured in Dulbecco's modified Eagle's medium (DMEM) supplemented with 10% fetal bovine serum (FBS). A549 cells (1×10^5 cells/mL, 12-well plate) were seeded in supplemented DMEM at 37° C. in a humidified atmosphere containing 5% CO2 until 80% confluency. All experiments were conducted in three replicates. Cells were treated with 1.0 mM polymyxin B in the presence and absence of tobramycin (1.0, 3.0, 5.0, 10.0 and 20.0 mM), amikacin (5.0 and 20.0 mM), gentamicin (5.0, 10.0 and 20.0 mM) and plazomicin (5.0 and 20.0 mM) in supplemented DMEM (1% FBS); and cell viability were examined at 24h with flow cytometry after staining with propidium iodide.

[2] = test system: mouse lung tissue; assay: Lung histology examination after intratracheal administration in mice
Protocol: The animal study was approved by the Animal Ethics Committee of the Monash Institute of Pharmaceutical Sciences, Monash University (Parkville, Victoria, Australia). All experiments were conducted in accordance with the Australian Code of Practice for the Care and Use of Animals for Scientific Purposes. Swiss Albino mice (female; age, 6 weeks; body weight, 20 to 25 g) were obtained from the Monash Animal Research Platform (Clayton, Victoria, Australia). […] The animals were housed individually in metabolic cages and had free access to food and water. Mice were intratracheally administered 10 mg/kg of polymyxin B, 60 mg/kg of tobramycin and the combination of tobramycin with polymyxin B in sterile 0.9% saline three times a day and lung histology examination were conducted in a blind manner.

[3] = mice, intratracheal, three times a day, 10 mg/kg polymyxin B, 60 mg/kg tobramycin, or both

Compound | cell viability ([1]; human, 24 h, 20 mM) | effect on polymyxin B-induced pulmonary toxicity ([2]; mouse, in vivo) | cell viability ([1]; 1.0 mM polymyxin B alone, A549 cells, 24h, mean±SD n=3) | area of lung tissue affected by damage [2, 3] | semi-quantitative score (SQS) of lung histology [2, 3]
NC[C@H]1O[C@H](O[C@H]2[C@H](O)[C@@H](O[C@H]3O[C@H](CO)[C@@H](O)[C@H](N)[C@H]3O)[C@H](N)C[C@@H]2N)[C@H](N)C[C@@H]1O [Tobramycin, tobramycin] | 87.4±1.6% | significantly reduced | – | – | –
polymyxin B | – | – | 40.7±7.4% | 25-50% | +2 to +5
